Experimental data as given in patent publication US10251394B2, “Molecules having pesticidal utility, and intermediates, compositions, and processes, related thereto” (Dow AgroSciences LLC, priority 2016, dated 2019).

Assays:
Assay type in all cases: in vivo
[1] = test system: Beet Armyworm (Spodoptera exigua); assay: Bioassay on Beet Armyworm (BAW), 128-well diet tray assay; conditions: Beet Armyworm, Table ABC, read-out: BAW rating
Summary of the method: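 Second-instar larvae (one to five per well) placed on artificial diet surface-treated with 50 μg/cm^2 test molecule in 90:10 acetone-water, dried, eight wells per molecule. Held at 25° C, 14:10 light-dark, five to seven days; percent mortality recorded per well and averaged across the eight wells.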

[2] = test system: Cabbage Looper (Trichoplusia ni); assay: Bioassay on Cabbage Looper (CL), 128-well diet tray assay; conditions: Cabbage Looper, Table ABC, read-out: CL rating
Summary of the method: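 Second-instar larvae, one to five per well, placed on artificial diet surface-treated with 50 μg/cm^2 compound in acetone-water, eight wells per compound. Held 5-7 days at 25° C, 14:10 light-dark; percent mortality per well averaged across wells.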

[3] = test system: Yellow Fever Mosquito (Aedes aegypti); assay: Bioassay on Yellow Fever Mosquito (YFM) larvae, 96-well plate; conditions: Table ABC
Summary of the method: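 About 1-day-old larvae in water with liver powder were added to wells holding compound from a 4000 ppm DMSO master diluted in 90:10 water:acetone. Plates covered and kept at room temperature for 3 days, then each well scored for mortality on a rating scale.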

O=C(NC1(C(=O)NCC(F)(F)F)CC1)c1ccc(/C(F)=C/C(c2ccc(Br)c(Br)c2)C(F)(F)F)cc1C(F)(F)F (stereo not drawn) [F80, (Z)-4-(3-(3,4-Dibromophenyl)-1,4,4,4-tetrafluorobut-1-en-1-yl)-N-(1-((2,2,2-trifluoroethyl)carbamoyl)cyclopropyl)-2-(trifluoromethyl)benzamide]
pest or weed control at 50 µg/cm2 [1]: 50 to 100%
pest or weed control at 50 µg/cm2 [2]: 50 to 100%
YFM rating [3]: A (80-100)

C[C@@H](NC(=O)c1ccc(/C(F)=C/C(c2cc(Cl)c(F)c(Cl)c2)C(F)(F)F)cc1C(F)(F)F)C(=O)N(C)CC(F)(F)F (stereo partly drawn) [F81, 4-((Z)-3-(3,5-Dichloro-4-fluorophenyl)-1,4,4,4-tetrafluorobut-1-en-1-yl)-N—((R)-1-(methyl(2,2,2-trifluoroethyl)amino)-1-oxopropan-2-yl)-2-(trifluoromethyl)benzamide]
pest or weed control at 50 µg/cm2 [1]: 50 to 100%
pest or weed control at 50 µg/cm2 [2]: 50 to 100%
YFM rating [3]: A (80-100)

CN(CC(F)(F)F)C(=O)CNC(=O)c1ccc(/C(F)=C/C(c2cc(Cl)c(F)c(Cl)c2)C(F)(F)F)cc1C(F)(F)F (stereo not drawn) [F82, (Z)-4-(3-(3,5-Dichloro-4-fluorophenyl)-1,4,4,4-tetrafluorobut-1-en-1-yl)-N-(2-(methyl(2,2,2-trifluoroethyl)amino)-2-oxoethyl)-2-(trifluoromethyl)benzamide]
pest or weed control at 50 µg/cm2 [1]: 50 to 100%
pest or weed control at 50 µg/cm2 [2]: 50 to 100%
YFM rating [3]: A (80-100)

C[C@@H](NC(=O)c1ccc(/C(F)=C/C(c2cc(Br)cc(Br)c2)C(F)(F)F)cc1C(F)(F)F)C(=O)N(C)CC(F)(F)F (stereo partly drawn) [F83, 4-((Z)-3-(3,5-Dibromophenyl)-1,4,4,4-tetrafluorobut-1-en-1-yl)-N—((R)-1-(methyl(2,2,2-trifluoroethyl)amino)-1-oxopropan-2-yl)-2-(trifluoromethyl)benzamide]
pest or weed control at 50 µg/cm2 [1]: 50 to 100%
pest or weed control at 50 µg/cm2 [2]: 50 to 100%
YFM rating [3]: A (80-100)

CN(CC(F)(F)F)C(=O)CNC(=O)c1ccc(/C(F)=C/C(c2cc(Br)cc(Br)c2)C(F)(F)F)cc1C(F)(F)F (stereo not drawn) [F84, (Z)-4-(3-(3,5-Dibromophenyl)-1,4,4,4-tetrafluorobut-1-en-1-yl)-N-(2-(methyl(2,2,2-trifluoroethyl)amino)-2-oxoethyl)-2-(trifluoromethyl)benzamide]
pest or weed control at 50 µg/cm2 [1]: 50 to 100%
pest or weed control at 50 µg/cm2 [2]: 50 to 100%
YFM rating [3]: A (80-100)

C=Cc1c(Cl)cc(C(/C=C(\F)c2ccc(C(=O)NCC(=O)N(C)CC(F)(F)F)c(C(F)(F)F)c2)C(F)(F)F)cc1Cl (stereo not drawn) [F85, (Z)-4-(3-(3,5-Dichloro-4-vinylphenyl)-1,4,4,4-tetrafluorobut-1-en-1-yl)-N-(2-(methyl(2,2,2-trifluoroethyl)amino)-2-oxoethyl)-2-(trifluoromethyl)benzamide]
pest or weed control at 50 µg/cm2 [1]: 50 to 100%
pest or weed control at 50 µg/cm2 [2]: 50 to 100%
YFM rating [3]: A (80-100)

C=Cc1c(Cl)cc(C(/C=C(\F)c2ccc(C(=O)N[C@H](C)C(=O)N(C)CC(F)(F)F)c(C(F)(F)F)c2)C(F)(F)F)cc1Cl (stereo partly drawn) [F86, 4-((Z)-3-(3,5-Dichloro-4-vinylphenyl)-1,4,4,4-tetrafluorobut-1-en-1-yl)-N—((R)-1-(methyl(2,2,2-trifluoroethyl)amino)-1-oxopropan-2-yl)-2-(trifluoromethyl)benzamide]
pest or weed control at 50 µg/cm2 [1]: 50 to 100%
pest or weed control at 50 µg/cm2 [2]: 50 to 100%
YFM rating [3]: A (80-100)

CN(CC(F)(F)F)C(=O)CN(C)C(=O)c1ccc(/C(F)=C/C(c2cc(Cl)c(Cl)c(Cl)c2)C(F)(F)F)cc1C(F)(F)F (stereo not drawn) [F99, (Z)—N-Methyl-N-(2-(methyl(2,2,2-trifluoroethyl)amino)-2-oxoethyl)-4-(1,4,4,4-tetrafluoro-3-(3,4,5-trichlorophenyl)but-1-en-1-yl)-2-(trifluoromethyl)benzamide]
pest or weed control at 50 µg/cm2 [1]: 50 to 100%
pest or weed control at 50 µg/cm2 [2]: 50 to 100%
YFM rating [3]: A (80-100)

Cc1cc(C(/C=C(\F)c2ccc(C(=O)N[C@H](C)C(=O)N(C)CC(F)(F)F)c(C(F)(F)F)c2)C(F)(F)F)cc(C)c1Cl (stereo partly drawn) [F102, 4-((Z)-3-(4-Chloro-3,5-dimethylphenyl)-1,4,4,4-tetrafluorobut-1-en-1-yl)-N—((R)-1-(methyl(2,2,2-trifluoroethyl)amino)-1-oxopropan-2-yl)-2-(trifluoromethyl)benzamide]
pest or weed control at 50 µg/cm2 [1]: 50 to 100%
pest or weed control at 50 µg/cm2 [2]: 50 to 100%
YFM rating [3]: A (80-100)

Cc1cc(C(/C=C(\F)c2ccc(C(=O)NCC(=O)N(C)CC(F)(F)F)c(C(F)(F)F)c2)C(F)(F)F)cc(C)c1Cl (stereo not drawn) [F103, (Z)-4-(3-(4-Chloro-3,5-dimethylphenyl)-1,4,4,4-tetrafluorobut-1-en-1-yl)-N-(2-(methyl(2,2,2-trifluoroethyl)amino)-2-oxoethyl)-2-(trifluoromethyl)benzamide]
pest or weed control at 50 µg/cm2 [1]: 50 to 100%
pest or weed control at 50 µg/cm2 [2]: 50 to 100%
YFM rating [3]: B (More than 0-Less than 80)

C=Cc1c(Cl)cc(C(/C=C(\F)c2ccc(C(=O)NC3(C(=O)NCC(F)(F)F)CC3)c(C(F)(F)F)c2)C(F)(F)F)cc1Cl (stereo not drawn) [F113, (Z)-4-(3-(3,5-Dichloro-4-vinylphenyl)-1,4,4,4-tetrafluorobut-1-en-1-yl)-N-(1-((2,2,2-trifluoroethyl)carbamoyl)cyclopropyl)-2-(trifluoromethyl)benzamide]
pest or weed control at 50 µg/cm2 [1]: 50 to 100%
pest or weed control at 50 µg/cm2 [2]: 50 to 100%
YFM rating [3]: A (80-100)

CN(CC(F)(F)F)C(=O)C1(NC(=O)c2ccc(/C(F)=C/C(c3cc(Cl)c(F)c(Cl)c3)C(F)(F)F)cc2C(F)(F)F)CC1 (stereo not drawn) [F114, (Z)-4-(3-(3,5-Dichloro-4-fluorophenyl)-1,4,4,4-tetrafluorobut-1-en-1-yl)-N-(1-(methyl(2,2,2-trifluoroethyl)carbamoyl)cyclopropyl)-2-(trifluoromethyl)benzamide]
pest or weed control at 50 µg/cm2 [1]: 50 to 100%
pest or weed control at 50 µg/cm2 [2]: 50 to 100%
YFM rating [3]: A (80-100)

CN(CC(F)(F)F)C(=O)C1(NC(=O)c2ccc(/C(F)=C/C(c3cc(Cl)cc(Cl)c3)C(F)(F)F)cc2C(F)(F)F)CC1 (stereo not drawn) [F115, (Z)-4-(3-(3,5-Dichlorophenyl)-1,4,4,4-tetrafluorobut-1-en-1-yl)-N-(1-(methyl(2,2,2-trifluoroethyl)carbamoyl)cyclopropyl)-2-(trifluoromethyl)benzamide]
pest or weed control at 50 µg/cm2 [1]: 50 to 100%
pest or weed control at 50 µg/cm2 [2]: 50 to 100%
YFM rating [3]: B (More than 0-Less than 80)

O=C(NC1(C(=O)NCC(F)(F)F)CC1)c1ccc(/C(F)=C/C(c2cc(Cl)cc(Br)c2)C(F)(F)F)cc1C(F)(F)F (stereo not drawn) [F116, (Z)-4-(3-(3-Bromo-5-chlorophenyl)-1,4,4,4-tetrafluorobut-1-en-1-yl)-N-(1-((2,2,2-trifluoroethyl)carbamoyl)cyclopropyl)-2-(trifluoromethyl)benzamide]
pest or weed control at 50 µg/cm2 [1]: 50 to 100%
pest or weed control at 50 µg/cm2 [2]: 50 to 100%
YFM rating [3]: A (80-100)

CN(CC(F)(F)F)C(=O)C1(NC(=O)c2ccc(/C(F)=C/C(c3cc(Br)c(Cl)c(Br)c3)C(F)(F)F)cc2C(F)(F)F)CC1 (stereo not drawn) [F118, (Z)-4-(3-(4-Dibromo-4-chlorophenyl)-1,4,4,4-tetrafluorobut-1-en-1-yl)-N-(1-(methyl(2,2,2-trifluoroethyl)carbamoyl)cyclopropyl)-2-(trifluoromethyl)benzamide]
pest or weed control at 50 µg/cm2 [1]: 50 to 100%
pest or weed control at 50 µg/cm2 [2]: 50 to 100%
YFM rating [3]: B (More than 0-Less than 80)

Cc1cc(C(/C=C(\F)c2ccc(C(=O)NC3(C(=O)N(C)CC(F)(F)F)CC3)c(C(F)(F)F)c2)C(F)(F)F)cc(C)c1Cl (stereo not drawn) [F119, (Z)-4-(3-(4-Chloro-3,5-dimethylphenyl)-1,4,4,4-tetrafluorobut-1-en-1-yl)-N-(1-(methyl(2,2,2-trifluoroethyl)carbamoyl)cyclopropyl)-2-(trifluoromethyl)benzamide]
pest or weed control at 50 µg/cm2 [1]: 50 to 100%
pest or weed control at 50 µg/cm2 [2]: 50 to 100%
YFM rating [3]: B (More than 0-Less than 80)

CN(CC(F)(F)F)C(=O)C1(NC(=O)c2ccc(/C(F)=C/C(c3ccc(Cl)c(Cl)c3)C(F)(F)F)cc2C(F)(F)F)CC1 (stereo not drawn) [F120, (Z)-4-(3-(3,4-Dichlorophenyl)-1,4,4,4-tetrafluorobut-1-en-1-yl)-N-(1-(methyl(2,2,2-trifluoroethyl)carbamoyl)cyclopropyl)-2-(trifluoromethyl)benzamide]
pest or weed control at 50 µg/cm2 [1]: 50 to 100%
pest or weed control at 50 µg/cm2 [2]: 50 to 100%
YFM rating [3]: B (More than 0-Less than 80)

O=C(CNC(=O)c1ccc(/C(F)=C/C(c2cc(Cl)cc(Br)c2)C(F)(F)F)cc1C(F)(F)F)NCC(F)(F)F (stereo not drawn) [F122, (Z)-4-(3-(3-Bromo-5-chlorophenyl)-1,4,4,4-tetrafluorobut-1-en-1-yl)-N-(2-oxo-2-((2,2,2-trifluoroethyl)amino)ethyl)-2-(trifluoromethyl)benzamide]
pest or weed control at 50 µg/cm2 [1]: 50 to 100%
pest or weed control at 50 µg/cm2 [2]: 50 to 100%
YFM rating [3]: B (More than 0-Less than 80)

CN(CC(F)(F)F)C(=O)C1(NC(=O)c2ccc(/C(F)=C/C(c3ccc(Br)c(Br)c3)C(F)(F)F)cc2C(F)(F)F)CC1 (stereo not drawn) [F130, (Z)-4-(3-(3,4-Dibromophenyl)-1,4,4,4-tetrafluorobut-1-en-1-yl)-N-(1-(methyl(2,2,2-trifluoroethyl)carbamoyl)cyclopropyl)-2-(trifluoromethyl)benzamide]
pest or weed control at 50 µg/cm2 [1]: 50 to 100%
pest or weed control at 50 µg/cm2 [2]: 50 to 100%
YFM rating [3]: A (80-100)

O=C(NC1(C(=O)NCC(F)(F)F)CC1)c1ccc(/C(F)=C/C(c2ccc(F)c(Cl)c2)C(F)(F)F)cc1C(F)(F)F (stereo not drawn) [F131, (Z)-4-(3-(3-Chloro-4-fluorophenyl)-1,4,4,4-tetrafluorobut-1-en-1-yl)-N-(1-((2,2,2-trifluoroethyl)carbamoyl)cyclopropyl)-2-(trifluoromethyl)benzamide]
pest or weed control at 50 µg/cm2 [1]: 50 to 100%
pest or weed control at 50 µg/cm2 [2]: 50 to 100%
YFM rating [3]: A (80-100)
